PubChem BioAssay AID1963982 (Molecular Pharmacology Branch, DTP, NCI, 2024)
Values belong to the molecule of their own block, whether it stands above or below them.

System: 313798-341-R-J2-PDC spheroids, viability
Experiment: Anticancer human tumor 313798-341-R-J2-PDC patient-derived cervical squamous cell carcinoma cell line growth inhibition [PI3K]
Details: spheroids with HUVEC and MSC; for IC50: curve of first compound; for viability, T/C: stronger effect = lower value
Outline: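 Stroma-containing spheroids: tumor line, pooled-donor HUVEC, hMSC. Treatments: targeted agents with PI3K inhibitors. Dosing: clinically relevant, half-log spacing, 10 microM ceiling without known Cmax. Read-out: cell viability.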

[1] = second compound 0.00316 µM, first compound 0.0316 µM
[2] = second compound 0.00316 µM, first compound 0.1 µM
[3] = second compound 0.00316 µM, first compound 0.316 µM
[4] = second compound 0.00316 µM, first compound 1 µM
[5] = second compound 0.00316 µM, first compound 3.16 µM
[6] = second compound 0.00316 µM, first compound 10 µM
[7] = second compound 0.01 µM, first compound 0.0316 µM
[8] = second compound 0.01 µM, first compound 0.1 µM
[9] = second compound 0.01 µM, first compound 0.316 µM
[10] = second compound 0.01 µM, first compound 1 µM
[11] = second compound 0.01 µM, first compound 3.16 µM
[12] = second compound 0.01 µM, first compound 10 µM
[13] = second compound 0.0316 µM, first compound 0.0316 µM
[14] = second compound 0.0316 µM, first compound 0.1 µM
[15] = second compound 0.0316 µM, first compound 0.316 µM
[16] = second compound 0.0316 µM, first compound 1 µM
[17] = second compound 0.0316 µM, first compound 3.16 µM
[18] = second compound 0.0316 µM, first compound 10 µM
[19] = second compound 0.1 µM, first compound 0.0316 µM
[20] = second compound 0.1 µM, first compound 0.1 µM
[21] = second compound 0.1 µM, first compound 0.316 µM
[22] = second compound 0.1 µM, first compound 1 µM
[23] = second compound 0.1 µM, first compound 3.16 µM
[24] = second compound 0.1 µM, first compound 10 µM
[25] = second compound 0.316 µM, first compound 0.0316 µM
[26] = second compound 0.316 µM, first compound 0.1 µM
[27] = second compound 0.316 µM, first compound 0.316 µM
[28] = second compound 0.316 µM, first compound 1 µM
[29] = second compound 0.316 µM, first compound 3.16 µM
[30] = second compound 0.316 µM, first compound 10 µM
[31] = second compound 1 µM, first compound 0.0316 µM
[32] = second compound 1 µM, first compound 0.1 µM
[33] = second compound 1 µM, first compound 0.316 µM
[34] = second compound 1 µM, first compound 1 µM
[35] = second compound 1 µM, first compound 3.16 µM
[36] = second compound 1 µM, first compound 10 µM
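Also: spheroids exposed to compounds for seven days.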
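For viability, T/C in this document: 100% = DMSO vehicle control viability.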

IC50 (second compound 0.00316 µM): 2.25 µM
IC50 (second compound 0.01 µM): 1.85 µM
IC50 (second compound 0.0316 µM): 2.38 µM
IC50 (second compound 0.1 µM): 1.91 µM
IC50 (second compound 0.316 µM): 0.805 µM
IC50 (second compound 1 µM): 0.0749 µM
SMILES: CC(C)NCC(C(=O)N1CCN(c2ncnc3c2C(C)CC3O)CC1)c1ccc(Cl)cc1 (stereo not drawn) + CC(Nc1ccc2c(c1)OCCn1cc(N3C(=O)OCC3C(F)F)nc1-2)C(N)=O
viability, T/C [1]: 107%
viability, T/C [2]: 94.9%
viability, T/C [3]: 81%
viability, T/C [4]: 68.6%
viability, T/C [5]: 40.5%
viability, T/C [6]: 25.9%
viability, T/C [7]: 107%
viability, T/C [8]: 103%
viability, T/C [9]: 93.5%
viability, T/C [10]: 61.1%
viability, T/C [11]: 41.1%
viability, T/C [12]: 30.2%
viability, T/C [13]: 106%
viability, T/C [14]: 92.5%
viability, T/C [15]: 82.2%
viability, T/C [16]: 69.5%
viability, T/C [17]: 41.3%
viability, T/C [18]: 25.6%
viability, T/C [19]: 121%
viability, T/C [20]: 99.6%
viability, T/C [21]: 80.9%
viability, T/C [22]: 62.5%
viability, T/C [23]: 39.5%
viability, T/C [24]: 27.2%
viability, T/C [25]: 84.6%
viability, T/C [26]: 84.2%
viability, T/C [27]: 62.3%
viability, T/C [28]: 46.7%
viability, T/C [29]: 35.4%
viability, T/C [30]: 26%
viability, T/C [31]: 53%
viability, T/C [32]: 50.2%
viability, T/C [33]: 42.1%
viability, T/C [34]: 38.2%
viability, T/C [35]: 30.5%
viability, T/C [36]: 25.5%

IC50 (second compound 0.00316 µM): > 1 µM
IC50 (second compound 0.01 µM): > 1 µM
IC50 (second compound 0.0316 µM): > 1 µM
IC50 (second compound 0.1 µM): > 1 µM
IC50 (second compound 0.316 µM): > 1 µM
IC50 (second compound 1 µM): > 1 µM
SMILES: CCN1CCN(Cc2ccc(Nc3ncc(F)c(-c4cc(F)c5nc(C)n(C(C)C)c5c4)n3)nc2)CC1 + CC(Nc1ccc2c(c1)OCCn1cc(N3C(=O)OCC3C(F)F)nc1-2)C(N)=O
viability, T/C (second compound 0.00316 µM, first compound 0.00316 µM): 102%
viability, T/C (second compound 0.00316 µM, first compound 0.01 µM): 104%
viability, T/C [1]: 99.3%
viability, T/C [2]: 105%
viability, T/C [3]: 123%
viability, T/C [4]: 131%
viability, T/C (second compound 0.01 µM, first compound 0.00316 µM): 94.9%
viability, T/C (second compound 0.01 µM, first compound 0.01 µM): 102%
viability, T/C [7]: 96.8%
viability, T/C [8]: 125%
viability, T/C [9]: 138%
viability, T/C [10]: 120%
viability, T/C (second compound 0.0316 µM, first compound 0.00316 µM): 103%
viability, T/C (second compound 0.0316 µM, first compound 0.01 µM): 104%
viability, T/C [13]: 117%
viability, T/C [14]: 115%
viability, T/C [15]: 133%
viability, T/C [16]: 110%
viability, T/C (second compound 0.1 µM, first compound 0.00316 µM): 115%
viability, T/C (second compound 0.1 µM, first compound 0.01 µM): 103%
viability, T/C [19]: 90.2%
viability, T/C [20]: 107%
viability, T/C [21]: 101%
viability, T/C [22]: 86.1%
viability, T/C (second compound 0.316 µM, first compound 0.00316 µM): 86.1%
viability, T/C (second compound 0.316 µM, first compound 0.01 µM): 76.7%
viability, T/C [25]: 71.4%
viability, T/C [26]: 75.7%
viability, T/C [27]: 77.7%
viability, T/C [28]: 61.7%
viability, T/C (second compound 1 µM, first compound 0.00316 µM): 57.3%
viability, T/C (second compound 1 µM, first compound 0.01 µM): 48.3%
viability, T/C [31]: 52.3%
viability, T/C [32]: 56.8%
viability, T/C [33]: 52.7%
viability, T/C [34]: 58%

IC50 (second compound 0.00316 µM): 0.97 µM
IC50 (second compound 0.01 µM): 1.04 µM
IC50 (second compound 0.0316 µM): 0.889 µM
IC50 (second compound 0.1 µM): 0.822 µM
IC50 (second compound 0.316 µM): 0.535 µM
IC50 (second compound 1 µM): 0.19 µM
SMILES: Cn1ncc(Cl)c1-c1cc(C(=O)NC(CN)Cc2cccc(F)c2)sc1Cl (stereo not drawn) + CC(Nc1ccc2c(c1)OCCn1cc(N3C(=O)OCC3C(F)F)nc1-2)C(N)=O
viability, T/C [1]: 117%
viability, T/C [2]: 91.3%
viability, T/C [3]: 94.2%
viability, T/C [4]: 48.3%
viability, T/C [5]: 34.4%
viability, T/C [6]: 38.6%
viability, T/C [7]: 97.3%
viability, T/C [8]: 102%
viability, T/C [9]: 75.5%
viability, T/C [10]: 52.4%
viability, T/C [11]: 38.1%
viability, T/C [12]: 35.6%
viability, T/C [13]: 102%
viability, T/C [14]: 107%
viability, T/C [15]: 84.5%
viability, T/C [16]: 46.8%
viability, T/C [17]: 35.1%
viability, T/C [18]: 34.9%
viability, T/C [19]: 114%
viability, T/C [20]: 95.7%
viability, T/C [21]: 67.6%
viability, T/C [22]: 47.4%
viability, T/C [23]: 35.2%
viability, T/C [24]: 36.8%
viability, T/C [25]: 74.6%
viability, T/C [26]: 69.6%
viability, T/C [27]: 57.9%
viability, T/C [28]: 41.4%
viability, T/C [29]: 32.8%
viability, T/C [30]: 35.7%
viability, T/C [31]: 59.8%
viability, T/C [32]: 56.1%
viability, T/C [33]: 44.7%
viability, T/C [34]: 37.2%
viability, T/C [35]: 28.7%
viability, T/C [36]: 32.2%

IC50 (second compound 0.00316 µM): > 10 µM
IC50 (second compound 0.01 µM): > 10 µM
IC50 (second compound 0.0316 µM): > 10 µM
IC50 (second compound 0.1 µM): > 10 µM
IC50 (second compound 0.316 µM): > 10 µM
IC50 (second compound 1 µM): 0.219 µM
SMILES: Cn1nccc1Nc1nccc(-c2ccn(C(CO)c3ccc(Cl)c(F)c3)c(=O)c2)n1 (stereo not drawn) + CC(Nc1ccc2c(c1)OCCn1cc(N3C(=O)OCC3C(F)F)nc1-2)C(N)=O
viability, T/C [1]: 98.2%
viability, T/C [2]: 96%
viability, T/C [3]: 90.5%
viability, T/C [4]: 97.2%
viability, T/C [5]: 103%
viability, T/C [6]: 100%
viability, T/C [7]: 98.7%
viability, T/C [8]: 97.9%
viability, T/C [9]: 87.9%
viability, T/C [10]: 111%
viability, T/C [11]: 121%
viability, T/C [12]: 102%
viability, T/C [13]: 109%
viability, T/C [14]: 98.6%
viability, T/C [15]: 102%
viability, T/C [16]: 112%
viability, T/C [17]: 115%
viability, T/C [18]: 99.5%
viability, T/C [19]: 98%
viability, T/C [20]: 95%
viability, T/C [21]: 93.6%
viability, T/C [22]: 94.8%
viability, T/C [23]: 89.4%
viability, T/C [24]: 80.2%
viability, T/C [25]: 77%
viability, T/C [26]: 66.4%
viability, T/C [27]: 65.7%
viability, T/C [28]: 58.5%
viability, T/C [29]: 66.8%
viability, T/C [30]: 51.6%
viability, T/C [31]: 59%
viability, T/C [32]: 46.1%
viability, T/C [33]: 46.8%
viability, T/C [34]: 46.5%
viability, T/C [35]: 52.7%
viability, T/C [36]: 34.9%
